From US12599582B2, “Pyrrole compounds” (ALIGOS THERAPEUTICS, INC., priority 2019, dated 2026)

Tested on: HBV
Assay: HBV-DNA Antiviral Assay Using HepG2.2.15 Cells (extracellular HBV DNA by qPCR)
Assay type: cell-based, hepatitis B virus (HBV)
Conditions: Hepatitis B virus; HBV DNA inhibition, HepG2.2.15 cells, extracellular HBV DNA by qPCR; read-out: EC50
Protocol: The following assay procedure describes the HBV antiviral assay. This assay uses HepG2.2.15 cells, which have been transfected with HBV genome, and extracellular HBV DNA quantification as endpoint. Cell viability is assessed in parallel by measuring the intracellular ATP content using the CellTiter-Glo® reagent from Promega.
On day 0, HepG2.2.15 cells were seeded in 96-well plates at a density of 6.0×10^4 cells/well (0.1 mL/well). The cells were incubated at 37° C. and 5% CO2.
On day 1, the test articles were diluted and added to cell culture wells (8 concentrations, 4-fold dilution, in duplicate). GLS4, Tenofovir and Sorafenib were used as reference compounds. 100 μL of culture medium containing the compounds was added to the plate, and the final total volume per well was 200 μL. The final concentration of DMSO in the culture medium was 0.5%. The plate map of compound treatment is shown below. The cells were cultured at 37° C. and 5% CO2 for 3 days.
On day 4, the plates were refreshed with culture media with compounds.
On day 7, cell viability was assessed using the CellTiter-Glo®, and the cell culture supernatants were collected for determination of HBV DNA by qPCR.
Extracellular DNA was isolated with QIAamp 96 DNA Blood Kit per the manufacturer's manual. HBV DNA was then quantified by qPCR with HBV specific primers and probes as specified in Table 1 using the FastStart Universal MasterMix from Roche on an ABI-7900HT. The PCR cycle program consisted of 95° C. for 10 min, followed by 40 cycles at 95° C. for 15 sec and 60° C. for 1 min.
A DNA standard was prepared by dilution of the pAAV2 HBV1.3 plasmid with concentrations ranging from 10 to 1×10^7 copies/uL and used to generate a standard curve by plotting Ct value vs. the concentration of the HBV plasmid DNA standard. The quantity of HBV DNA in each sample was determined by interpolating from the standard curve.
Cell viability was calculated as follows: % Cell viability=(luminescence value of test sample−average luminescence value of blank)/(average luminescence value of 0.5% DMSO control−average luminescence of blank)×100%. HBV DNA inhibition was calculated as follows: 100−(HBV DNA copy number of test sample−HBV DNA copy number of ETV)/HBV DNA copy number of 0.5% DMSO control−HBV DNA copy number of ETV)×100%. The CC50, EC50 and EC90 values were determined by dose-response curves fitted by GraphPad Prism using “log (agonist) vs. response—Variable slope”.

Row | Compound | EC50 [nM]
1 | Cc1c(C(=O)C(=O)NC(C)(C)c2cnn(C3CC3)c2)c(C)n(C)c1C(=O)Nc1ccc(F)c(C#N)c1 [Compound 135, N-(3-cyano-4-fluoro-phenyl)-4-[2-[[1-(1-cyclopropylpyrazol-4-yl)-1-methyl-ethyl]amino]-2-oxo-acetyl]-1,3,5-trimethyl-pyrrole-2-carboxamide] | 1 to 10
2 | C#CCNC(=O)C(=O)c1cc(C(=O)Nc2ccc(F)c(C#N)c2)n(C)c1Cl [Compound 25, 5-chloro-N-(3-cyano-4-fluoro-phenyl)-1-methyl-4-[2-oxo-2-(prop-2-ynylamino)acetyl]pyrrole-2-carboxamide] | 100 to 1000
3 | C#CCNC(=O)C(=O)c1c(F)c(C(=O)Nc2ccc(F)c(C#N)c2)n(C)c1Br [Compound 20, 5-bromo-N-(3-cyano-4-fluoro-phenyl)-3-fluoro-1-methyl-4-[2-oxo-2-(prop-2-ynylamino)acetyl]pyrrole-2-carboxamide] | 10 to 100
4 | Cc1c(C(=O)C(=O)NC(C)(C)c2ccncn2)c(C)n(C)c1C(=O)Nc1ccc(F)c(C#N)c1 [Compound 152, N-(3-cyano-4-fluoro-phenyl)-1,3,5-trimethyl-4-[2-[(1-methyl-1-pyrimidin-4-yl-ethyl)amino]-2-oxo-acetyl]pyrrole-2-carboxamide] | 1 to 10
5 | C#C[C@@H](NC(=O)C(=O)c1c(C)c(C(=O)Nc2ccc(F)c(C(F)(F)F)c2)n(C)c1C)C1CC1 [Compound 38b, N-[4-fluoro-3-(trifluoromethyl)phenyl]-1,3,5-trimethyl-4-[2-oxo-2-[[(1S)-1-cyclopropylprop-2-ynyl]amino]acetyl]pyrrole-2-carboxamide] | < 1
6 | Cc1c(C(=O)C(=O)NC(C)(C)c2ncc[nH]2)c(C)n(C)c1C(=O)Nc1ccc(F)c(C#N)c1 [Compound 131, N-(3-cyano-4-fluoro-phenyl)-4-[2-[[1-(1H-imidazol-2-yl)-1-methyl-ethyl]amino]-2-oxo-acetyl]-1,3,5-trimethyl-pyrrole-2-carboxamide] | 1 to 10
7 | C#CC1(NC(=O)C(=O)c2c(C)c(C(=O)Nc3ccc(F)c(C#N)c3)n(C)c2C)CC(O)C1 (stereo not shown) [Compound 32, N-(3-cyano-4-fluorophenyl)-4-[[(1-ethynyl-3-hydroxycyclobutyl)carbamoyl]carbonyl]-1,3,5-trimethylpyrrole-2-carboxamide] | 1 to 10
8 | C=C[C@@H](NC(=O)C(=O)c1c(C)c(C(=O)Nc2ccc(F)c(C#N)c2)n(C)c1C)C(F)(F)F [Compound 36b, N-(3-cyano-4-fluoro-phenyl)-1,3,5-trimethyl-4-[2-oxo-2-[[(1R)-1-(trifluoromethyl)allyl]amino]acetyl]pyrrole-2-carboxamide] | < 1
9 | Cc1c(C(=O)C(=O)NC2(c3c[nH]nn3)CC(F)(F)C2)c(C)n(C)c1C(=O)Nc1ccc(F)c(C#N)c1 [Compound 19, N-(3-cyano-4-fluoro-phenyl)-4-[2-[[3,3-difluoro-1-(1H-triazol-4-yl)cyclobutyl]amino]-2 oxo-acetyl]-1,3,5-trimethyl-pyrrole-2-carboxamide] | < 1
10 | C#C[C@H](C)NC(=O)C(=O)c1c(C)c(C(=O)Nc2ccc(F)c(C#N)c2)n(C)c1C [Compound 17b, N-(3-cyano-4-fluoro-phenyl)-1,3,5-trimethyl-4-[2-oxo-2-[[(1S)-1-methylprop-2-ynyl]amino]acetyl]pyrrole-2-carboxamide] | 1 to 10
11 | Cc1c(C(=O)C(=O)NC2(c3c[nH]cn3)COC2)c(C)n(C)c1C(=O)Nc1ccc(F)c(C#N)c1 [Compound 157, N-(3-cyano-4-fluoro-phenyl)-4-[2-[[3-(1H-imidazol-4-yl)oxetan-3-yl]amino]-2-oxo-acetyl]-1,3,5-trimethyl-pyrrole-2-carboxamide] | 1 to 10
12 | Cc1c(C(=O)C(=O)NC(C)(C)c2cncnc2)c(C)n(C)c1C(=O)Nc1ccc(F)c(C#N)c1 [Compound 144, N-(3-cyano-4-fluoro-phenyl)-1,3,5-trimethyl-4-[2-[(1-methyl-1-pyrimidin-5-yl-ethyl)amino]-2-oxo-acetyl]pyrrole-2-carboxamide] | 1 to 10
13 | C=CCNC(=O)C(=O)c1c(C)c(C(=O)Nc2ccnc(Br)c2F)n(C)c1C [Compound 5, 4-[2-(allylamino)-2-oxo-acetyl]-N-(2-bromo-3-fluoro-4-pyridy1)-1,3,5-trimethyl-pyrrole-2-carboxamide] | 10 to 100
14 | C#C[C@@](C)(CO)NC(=O)C(=O)c1c(C)c(C(=O)Nc2ccc(F)c(C#N)c2)n(C)c1C [Compound 64b, N-(3-cyano-4-fluoro-phenyl)-1,3,5-trimethyl-4-[2-oxo-2-[[(1S)-1-(hydroxymethyl)-1-methyl-prop-2-ynyl]amino]acetyl]pyrrole-2-carboxamide] | 1 to 10
15 | C#CC1(NC(=O)C(=O)c2c(Cl)c(C(=O)Nc3ccc(F)c(C#N)c3)n(C)c2C)CC(F)(F)C1 [Compound 52, 3-chloro-N-(3-cyano-4-fluoro-phenyl)-4-[2-[(1-ethynyl-3,3-difluoro-cyclobutyl)amino]-2-oxo-acetyl]-1,5-dimethyl-pyrrole-2-carboxamide] | < 1
16 | Cc1c(C(=O)C(=O)NC(C)(C)c2cn[nH]c2)c(C)n(C)c1C(=O)Nc1ccc(F)c(C#N)c1 [Compound 96, N-(3-cyano-4-fluoro-phenyl)-1,3,5-trimethyl-4-[2-[[1-methyl-1-(1H-pyrazol-4-yl)ethyl]amino]-2-oxo-acetyl]pyrrole-2-carboxamide] | 1 to 10
17 | Cc1c(C(=O)C(=O)NC(C)(C)c2cccnc2)c(C)n(C)c1C(=O)Nc1ccc(F)c(C(F)(F)F)c1 [Compound 100, N-[4-fluoro-3-(trifluoromethyl)phenyl]-1,3,5-trimethyl-4-[2-[[1-methyl-1-(3-pyridyl)ethyl]amino]-2-oxo-acetyl]pyrrole-2-carboxamide] | < 1
18 | C#C[C@H](CO)NC(=O)C(=O)c1c(C)c(C(=O)Nc2ccc(F)c(C#N)c2)n(C)c1C (single isomer, unassigned) [Compound 31b] | 1 to 10
19 | C#C[C@@H](CCO)NC(=O)C(=O)c1c(C)c(C(=O)Nc2ccc(F)c(C#N)c2)n(C)c1C [Compound 61a, N-(3-cyano-4-fluoro-phenyl)-1,3,5-trimethyl-4-[2-oxo-2-[[(1R)-1-(2-hydroxyethyl)prop-2-ynyl]amino]acetyl]pyrrole-2-carboxamide] | 1 to 10
20 | Cc1c(C(=O)C(=O)NC(C)(C)c2ccncn2)c(C)n(C)c1C(=O)Nc1ccc(F)c(C(F)(F)F)c1 [Compound 153, N-[4-fluoro-3-(trifluoromethyl)phenyl]-1,3,5-trimethyl-4-[2-[(1-methyl-1-pyrimidin-4-yl-ethyl)amino]-2-oxo-acetyl]pyrrole-2-carboxamide] | < 1
21 | C#C[C@](CO)(NC(=O)C(=O)c1c(C)c(C(=O)Nc2ccc(F)c(C#N)c2)n(C)c1C)C1CC1 [Compound 63a, N-(3-cyano-4-fluoro-phenyl)-1,3,5-trimethyl-4-[2-oxo-2-[[(1R)-1-cyclopropyl-1-(hydroxymethyl)prop-2-ynyl]amino]acetyl]pyrrole-2-carboxamide] | 1 to 10
22 | Cc1c(C(=O)C(=O)NC(C)(C)c2ncc[nH]2)c(C)n(C)c1C(=O)Nc1ccc(F)c(C(F)(F)F)c1 [Compound 132, N-[4-fluoro-3-(trifluoromethyl)phenyl]-4-[2-[[1-(1H-imidazol-2-yl)-1-methyl-ethyl]amino]-2-oxo-acetyl]-1,3,5-trimethyl-pyrrole-2-carboxamide] | 1 to 10
